From patent US20250230193A1, “CYCLIC COMPOUND HAVING SELECTIVE KRAS INHIBITORY EFFECT ON HRAS AND NRAS” (CHUGAI SEIYAKU KABUSHIKI KAISHA, priority 2022, published 2025)
Where a SMILES comes first, the peptide text is derived from it. Bridges are numbered along the chain shown (N, C = ends). [ ]: non-standard residue; d: D form. The star is where a group is joined. hPhe(3-Cl-4-CF3) = N[C@@H](CCc1ccc(C(F)(F)F)c(Cl)c1)C(=O)O; NPrPhe(4-CF3) = CCCN[C@@H](Cc1ccc(C(F)(F)F)cc1)C(=O)O; NMeGly(cPent) = CN[C@H](C(=O)O)C1CCCC1; Pro(4,4-F2) = O=C(O)[C@@H]1CC(F)(F)CN1; Hyp = O=C(O)[C@@H]1C[C@@H](O)CN1; NMeD = CN[C@@H](CC(=O)O)C(=O)O; NMeL = CN[C@@H](CC(C)C)C(=O)O; Pip = O=C(O)[C@@H]1CCCCN1; Morpholide = C1CN(*)CCO1; Ac5c = NC1(C(=O)O)CCCC1; Aze = O=C(O)[C@@H]1CCN1; Ac4c = NC1(C(=O)O)CCC1; Sar = CNCC(=O)O

Experiments:
[1] = molecular target: GDP-bound NRAS wild-type protein (Homo sapiens, UniProt P01111); assay: Binding to NRAS by surface plasmon resonance (SPR), Single Cycle Kinetics; details: SPR
[2] = molecular target: GDP-bound HRAS wild-type protein (Homo sapiens, UniProt P01112); assay: Binding to HRAS by surface plasmon resonance (SPR), Single Cycle Kinetics; details: SPR
Chain of GDP-bound HRAS wild-type protein (P01112 whole entry): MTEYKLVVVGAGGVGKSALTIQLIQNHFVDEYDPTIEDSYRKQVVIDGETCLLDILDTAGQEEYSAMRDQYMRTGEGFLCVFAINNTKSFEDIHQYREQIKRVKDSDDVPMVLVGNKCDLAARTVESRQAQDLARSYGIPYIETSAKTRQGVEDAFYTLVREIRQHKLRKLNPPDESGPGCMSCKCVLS

Chain of GDP-bound NRAS wild-type protein (P01111 whole entry): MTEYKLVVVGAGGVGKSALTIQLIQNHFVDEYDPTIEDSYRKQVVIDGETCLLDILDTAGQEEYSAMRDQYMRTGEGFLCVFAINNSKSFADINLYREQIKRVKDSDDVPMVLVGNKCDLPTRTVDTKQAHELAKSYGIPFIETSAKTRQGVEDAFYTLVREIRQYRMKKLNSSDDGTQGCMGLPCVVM

## CCCN1C(=O)CN(C)C(=O)CN(C)C(=O)[C@H]([C@@H](C)CC)NC(=O)[C@H](CC(C)C)N(C)C(=O)C[C@@H](C(=O)N2CCOCC2)N(C)C(=O)[C@H](C2CCCC2)N(C)C(=O)C2(CCCC2)NC(=O)[C@@H]2CCCCN2C(=O)[C@H](CCc2ccc(C(F)(F)F)c(Cl)c2)NC(=O)CN(C)C(=O)[C@@H]1Cc1ccc(C(F)(F)F)cc1 [PP0263] ([NMeL]I[Sar][Sar][NPrPhe(4-CF3)][Sar][hPhe(3-Cl-4-CF3)][Pip][Ac5c][NMeGly(cPent)][NMeD]-Morpholide; lactam N-11)
[1]
  NRAS/KRAS (ratio of KD for GDP-bound NRAS wild-type to KD for KRAS): B (a compound having 3 or more and less than 10 is denoted as B)
[2]
  HRAS/KRAS (ratio of KD for GDP-bound HRAS wild-type to KD for KRAS): C (A compound having a KD ratio of 0.1 or more and less than 3 is denoted as C)

## CCO[C@@H]1C[C@H]2C(=O)N(C)C3(CC(C)(C)C3)C(=O)N(C)[C@@H](C3CCCC3)C(=O)N(C)[C@H](C(=O)N(C)C)CC(=O)N(C)[C@H]3CCCC/C=C/c4ccc(cc4)C[C@@H](C(=O)N(C)CC(=O)N[C@@H](CCc4ccc(Cl)c(Cl)c4)C(=O)N2C1)N1CC/C=C\C[C@@H](C1=O)N(C)C(=O)CN(C)C(=O)[C@H]([C@@H](C)CC)NC3=O [PP3062]
[1]; GDP-bound wild-type proteins
  NRAS/KRAS (ratio of KD value with respect to GDP-bound NRAS wild-type protein to KD value with respect to KRAS): A (a compound having 10 or more and less than 20 is denoted as A)
[2]; GDP-bound wild-type proteins
  HRAS/KRAS (ratio of KD value with respect to GDP-bound HRAS wild-type protein to KD value with respect to KRAS): A (a compound having 10 or more and less than 20 is denoted as A)

## CCCN1C(=O)[C@@H]2CCN2C(=O)CN(C)C(=O)[C@H]([C@@H](C)CC)NC(=O)[C@H](CC(C)C)N(C)C(=O)C[C@@H](C(=O)N2CCOCC2)N(C)C(=O)[C@H](C2CCCC2)N(C)C(=O)C2(CCCC2)NC(=O)[C@@H]2CC(F)(F)CN2C(=O)[C@H](CCc2ccc(C(F)(F)F)c(Cl)c2)NC(=O)CN(C)C(=O)[C@@H]1Cc1ccc(C(F)(F)F)cc1 [PP0408] ([NMeL]I[Sar][Aze][NPrPhe(4-CF3)][Sar][hPhe(3-Cl-4-CF3)][Pro(4,4-F2)][Ac5c][NMeGly(cPent)][NMeD]-Morpholide; lactam N-11)
[1]
  NRAS/KRAS (ratio of KD for GDP-bound NRAS wild-type to KD for KRAS): C (A compound having a KD ratio of 0.1 or more and less than 3 is denoted as C)
[2]
  HRAS/KRAS (ratio of KD for GDP-bound HRAS wild-type to KD for KRAS): B (a compound having 3 or more and less than 10 is denoted as B)

## CCO[C@@H]1C[C@H]2C(=O)NC3(CCC3)C(=O)N(C)[C@@H](C3CCCC3)C(=O)N(C)[C@H](C(=O)N(C)CC)CC(=O)N(C)[C@@H](CC(F)F)C(=O)N[C@@H]([C@@H](C)CC)C(=O)N(C)CC(=O)N(C)[C@H]3C/C=C\CCN(C3=O)[C@@H](Cc3ccc(C(F)(F)F)cc3)C(=O)N(C)CC(=O)N[C@@H](CCc3cc(F)c(C(F)(F)F)c(F)c3)C(=O)N2C1 [PP1303]
[1]; KD ratio class
  NRAS/KRAS (ratio of KD value for GDP-bound NRAS wild-type protein to KD value for KRAS): AA (a compound having 20 or more is denoted as AA)
[2]; KD ratio class
  HRAS/KRAS (ratio of KD value for GDP-bound HRAS wild-type protein to KD value for KRAS): A (a compound having 10 or more and less than 20 is denoted as A)

## CCO[C@@H]1C[C@H]2C(=O)NC3(CCC3)C(=O)N(C)[C@@H](C3CCCC3)C(=O)N(C)[C@H](C(=O)N(C)C)CC(=O)N(C)[C@@H](C)C(=O)N[C@@H]([C@@H](C)CC)C(=O)N(C)CC(=O)N(C)[C@H]3CCCCN(C3=O)[C@@H](Cc3ccc(C(F)(F)F)cc3)C(=O)N(C)CC(=O)N[C@@H](CCc3cc(F)c(C(F)(F)F)c(F)c3)C(=O)N2C1 [PP0587]
[1]
  NRAS/KRAS (ratio of KD value with respect to GDP-bound NRAS wild-type protein to KD value with respect to KRAS): C (A compound having a KD ratio of 0.1 or more and less than 3 is denoted as C)
[2]
  HRAS/KRAS (ratio of KD value with respect to GDP-bound HRAS wild-type protein to KD value with respect to KRAS): C (A compound having a KD ratio of 0.1 or more and less than 3 is denoted as C)

## CCCN1C(=O)CN(C)C(=O)CNC(=O)[C@H]([C@@H](C)CC)NC(=O)[C@H](CC(C)C)N(C)C(=O)C[C@@H](C(=O)N(C)C)NC(=O)[C@H](C2CCCC2)N(C)C(=O)C2(CCC2)NC(=O)[C@@H]2C[C@@H](OCC)CN2C(=O)[C@H](CCc2ccc(C(F)(F)F)c(Cl)c2)NC(=O)CN(C)C(=O)[C@@H]1Cc1ccc(C(F)(F)F)cc1 [PP0366] ([NMeL]IG[Sar][NPrPhe(4-CF3)][Sar][hPhe(3-Cl-4-CF3)][Hyp](Et)[Ac4c][NMeGly(cPent)]D-NMe2; lactam N-11)
[1]
  NRAS/KRAS (ratio of KD for GDP-bound NRAS wild-type to KD for KRAS): B (a compound having 3 or more and less than 10 is denoted as B)
[2]
  HRAS/KRAS (ratio of KD for GDP-bound HRAS wild-type to KD for KRAS): B (a compound having 3 or more and less than 10 is denoted as B)

## CCC[C@H]1C(=O)N[C@@H]([C@@H](C)CC)C(=O)N(C)CC(=O)N(C)[C@H]2C/C=C\CCN(C2=O)[C@@H](Cc2ccc(C)cc2)C(=O)N(C)CC(=O)N[C@@H](CCc2cc(F)c(C(F)(F)F)c(F)c2)C(=O)N2C[C@H](OCC)C[C@H]2C(=O)NC2(CC(C)(C)C2)C(=O)N(C)[C@@H](CC(C)C)C(=O)N(C)[C@H](C(=O)N(C)C)CC(=O)N1C [PP2995]
[1]; GDP-bound wild-type proteins
  NRAS/KRAS (ratio of KD value with respect to GDP-bound NRAS wild-type protein to KD value with respect to KRAS): A (a compound having 10 or more and less than 20 is denoted as A)
[2]; GDP-bound wild-type proteins
  HRAS/KRAS (ratio of KD value with respect to GDP-bound HRAS wild-type protein to KD value with respect to KRAS): A (a compound having 10 or more and less than 20 is denoted as A)
